{"source": "patent US4061542A", "about": "“2-Methyl-L-arginine produced by cultivating streptomyces strain” (Hoffmann-La Roche Inc., priority 1976, dated 1977)", "key": {"[1]": {"test": "Acute toxicity (LD50) in mice", "assay_type": "in vivo", "conditions": "mouse, in vivo, mice"}, "males [2]": {"tested_on": "males", "conditions": "administered to males; comparison substance; cited from earlier work"}, "spermidine production [3]": {"tested_on": "spermidine production", "conditions": "in words; comparison substance; cited from earlier work"}, "ornithine decarboxylase [4]": {"tested_on": "ornithine decarboxylase", "conditions": "in words; comparison substance; cited from earlier work"}, "spermidine production [5]": {"tested_on": "spermidine production", "test": "Suppression of spermidine production", "conditions": "in words; no test data given"}, "ornithine decarboxylase [6]": {"tested_on": "ornithine decarboxylase", "test": "Inhibition of ornithine decarboxylase", "assay_type": "biochemical", "conditions": "in words; no test data given"}, "males [7]": {"tested_on": "males", "test": "Anti-fertility activity when administered to males", "assay_type": "in vivo", "conditions": "in words, no test data given"}, "mice": {"tested_on": "mice", "test": "Acute toxicity (LD50) in mice", "assay_type": "in vivo", "conditions": "in words"}, "Escherichia coli B": {"tested_on": "Escherichia coli B", "test": "Paper-disc agar-diffusion assay (Scannell et al.), Escherichia coli B as test organism, minimal agar medium", "assay_type": "cell-based", "excerpt": "(§1) The anti-microbial properties of the compound of the formula I and its salts are shown by the paper-disc agar-diffusion assay as described by Scannell et al. J. Antibiotics 25: 179-184 (1972). In this assay, Escherichia coli B as test organism, the minimal agar medium described by Scanell et al. was employed for the initial detection and during isolation of the antimetabolite. Similar to N^5 -hydroxy-L-arginine, the diameter of the inhibition zone was proportional to the logarithm of concentration of the compound of formula I within the range of 2 to about 100 λg/ml. A two-fold increase of the concentration of the compound of formula I increased the inhibition zone diameter by 3 mm and a […] solution gave a zone of about 36 mm.\n(§2) (ATCC 27860) as againt E. coli."}, "[8]": {"tested_on": "Bacillus sp. (ATCC 27860)", "test": "Antibiotic activity against Bacillus sp. (ATCC 27860)", "assay_type": "cell-based", "excerpt": "as §1, §2"}}, "note": "Read-outs that look alike come from different tables or passages of the source.", "data": [{"smiles": "C[C@](N)(CCCNC(=N)N)C(=O)O", "values": [{"measurement": "LD50", "setting": "[1]; ip", "value": "> 1000", "unit": "mg/kg"}, {"measurement": "LD50", "setting": "[1]; po", "value": "> 1000", "unit": "mg/kg"}]}, {"smiles": "CC(N)(CCCN)C(=O)O", "note": "(racemic) [D,L-2-methyl ornithine]", "values": [{"measurement": "anti-fertility activity", "setting": "males [2]", "value": "anti-fertility agent"}, {"measurement": "suppression of spermidine production", "setting": "spermidine production [3]", "value": "suppresses spermidine production"}, {"measurement": "inhibition of ornithine decarboxylase", "setting": "ornithine decarboxylase [4]", "value": "inhibitor of ornithine decarboxylase"}]}, {"smiles": "C[C@](N)(CCCN)C(=O)O", "note": "[L-2-methyl ornithine, 2-methyl-L-ornithine]", "values": [{"measurement": "suppression of spermidine production", "setting": "spermidine production [5]", "value": "suppresses spermidine production"}, {"measurement": "inhibition of ornithine decarboxylase", "setting": "ornithine decarboxylase [6]", "value": "inhibitor of ornithine decarboxylase"}, {"measurement": "anti-fertility activity", "setting": "males [7]", "value": "anti-fertility agent"}]}, {"smiles": "C[C@](N)(CCCNC(=N)N)C(=O)O", "note": "[compound of formula I, 2-methyl-L-arginine]", "values": [{"measurement": "toxicity to vertebrates", "setting": "mice", "value": "relatively non-toxic"}, {"measurement": "reversal of antibiotic activity against Escherichia coli", "setting": "Escherichia coli B; by added amino acids", "value": "reversed by L-arginine, L-citrulline, L-ornithine and N^2 -acetyl-L-ornithine"}, {"measurement": "activity against Escherichia coli B", "setting": "Escherichia coli B; in words", "value": "active"}, {"measurement": "increase of inhibition zone diameter on two-fold increase of concentration", "setting": "Escherichia coli B; two-fold increase of the concentration, Escherichia coli B", "value": 3, "unit": "mm"}, {"measurement": "activity against Bacillus s.p.", "setting": "[8]; in words", "value": "active"}, {"measurement": "level of activity against Bacillus sp. (ATCC 27860) compared with E. coli", "setting": "[8]; relative to E. coli", "value": "approximately the same level of activity"}]}]}
